Source: patent US9198894B2, “Uses of 15-benzylidene-14-deoxy-11,12-didehydroandrographolide derivatives in the preparation of antineoplastic drugs” (Zhengzhou University, priority 2010, dated 2015)
Values joined by “and” are separate entries in the source; they are usually repeats but may differ in a detail not shown here. Equal entries are not always repeated. Marks after values point to notes of the source that are not given here.

Legend:
[1] = tested on: A549 human lung adenocarcinoma; experiment: Colony formation assay, A549; assay type: cell-based
Description: (§1) 1) Cell lines: Cell lines of SGC-7901 human gastric cancer, A549 human lung adenocarcinoma and Hela human cervical carcinoma were purchased from the Type Culture Collection of the Chinese Academy of Sciences, Shanghai, China.
(§2) 3) Method: Colony formation assay was used. The cells were trypsinized to generate a single-cell suspension and seeded in a 6-well plate at a density of 100 cells/well, then drug-containing medium was added to the well to make the final concentration of compound to 0, 1.25, 2.50, 5.00, 7.50, 10.00 μmol/L, respectively. The experiments were performed in duplicate, and the cells were cultured at 37 in a humidified atmosphere with 5% CO2. Terminate cell culture when the clones can be seen in the culture plate, then remove the culture medium, and wash twice with PBS, fix the cells with methanol (5 ml/well) for 15 min and stain the cells with hematoxylin-eosin stain. The number of clones which comprised more than 50 cells was counted under a TS100-F-PH microscope (Nikon Company, Japan). Calculate relative colony formation ratio (%) and the IC50 values. Relative colony formation ratio (%)=(colony number of drug-administration well/colony number of control well)×100%.

[2] = tested on: Hela human cervical carcinoma; experiment: Colony formation assay, Hela; assay type: cell-based; settings: Hela; read-out: Inhibition against tumor cell colony formation IC50
Description: as §1, §2

[3] = tested on: SGC-7901 human gastric cancer; experiment: Colony formation assay, SGC-7901; assay type: cell-based
Description: as §1, §2

[4] = tested on: 5637 human urinary bladder cancer cells; experiment: Wound healing (two-dimensional migration) assay, 5637; assay type: cell-based; settings: 5637, 10.00 μmol/l, 24 h (FIG. 1C)
Description: (§3) 1) Cell lines: Cell lines of 5637 human bladder carcinoma, Eca-109 human esophageal carcinoma, HT29 human colon cancer, SGC-7901 human gastric cancer, A549 human lung adenocarcinoma and PC-3 human prostate carcinoma were purchased from the Type Culture Collection of the Chinese Academy of Sciences, Shanghai, China.
(§4) 3) Methods: The cells were trypsinized to generate a single-cell suspension and seeded in 96-well plates (200 μl/well), and incubated with medium containing 10% fetal bovine serum at 37 in a humidified atmosphere with 5% CO2. Following a 24 h incubation, the cells were starved for an additional 12 h in low-serum media (1% FBS). The cultures of Eca-109, HT29, 5637, SGC-7901, A549 and PC-3 were then scratched away with a 200-μl plastic pipette tip and rinsed twice with PBS to remove wound-derived loose and dislodged cells. The cells were cultured in replaced medium without or with compounds at final concentrations of 0, 2.50, 5.00 and 10.00 μmol/L, respectively. At least seven randomly selected views along the scraped line in each well were photographed immediately and 24 h and 36 h after incubation using a digital camera at 50× magnification. The average scraped area in each well under each treatment condition was measured, and the percentage of inhibition against cell migration was calculated. % of inhibition=1−(A0−At)/(A′0−A′t)×100%, where, A0 and At are the areas of wound with compound treatment measured immediately and 24 or 36 h post-injury, respectively; A′0 and A′t are the areas of wound without compound treatment measured immediately and 24 or 36 h post-injury, respectively.

[5] = tested on: PC-3 human prostate carcinoma cells; experiment: Wound healing (two-dimensional migration) assay, PC-3; assay type: cell-based; settings: PC-3, 10.00 μmol/l, 36 h (FIG. 1F)
Description: as §3
as §4, with “The cells were cultured in replaced medium without or with compounds at final concentrations of 0, 2.50, 5.00 and 10.00 μmol/L, respectively. At least seven randomly selected views along the scraped line in each well were photographed immediately and 24 h and 36 h after incubation using a digital camera at 50× magnification.” left out

Murine hepatoma H22 = experiment: Anti-tumor and anti-angiogenesis effects on H22 tumor-bearing mice; assay type: in vivo, mouse; settings: H22 mice, 20.00 mg/kg ig once a day 7 d
Excerpt: 1) Animals: Kunming mice of clean grade, half male and half female, body weight 20±2 g, were purchased from the experimental animal center of Henan Province, China. Qualified Certificate number: SCXK (Yu) 2005-0001.
2) Cells: Murine hepatoma H22 cells were presently obtained from Henan Academy of Medical and Pharmaceutical Sciences (Zhengzhou, China).
Cyclophosphamide (Cyc) was produced by Tianjin Jingshi Pharmaceutical Co., Ltd., China (approval number of medicine: H12021006). Gelatin and carmine red were supplied by Sigma Chemical (St. Louis, Mo., U.S.A). All other chemicals and reagents were of the highest commercial grade available. All drugs were prepared with normal saline emulsified with Tween-80 (0.1% v/v) and dispersed in carboxymethylcellulose (0.5% v/v). 10% (W/V) carmine solution was prepared with salt solution containing 5% (W/V) gelatin which should be used immediately after preparation. The rest of medicines and reagents and the methods for preparation were the same with that of EXAMPLE 1.
4) Method: The H22 cells after in vivo passage for 7 d were diluted with physiological saline to adjust to a concentration of 1×10^7/mL, injected to the armpit of right forelimb of mice subcutaneously (0.2 ml/mouse), then mice were divided into 10 groups (n=12; 6 male and 6 female per group) randomly. 24 h later each group of mice was administrated intragastrically (ig; 0.2 ml/10 g) once a day continuously for 7 d with vehicle (tumor control group and control group), Cyc (standard control), or compounds at the tested doses. After the last drug administration and a following fasting of 8 h, each mouse was anesthetized with 1% pentobarbital in normal saline solution (80 mg/kg; ip). Mice of control group were injected with 5% gelatin in normal saline solution (40) via the tail vein (1 ml/mouse); whereas mice of other groups were injected replaced by 10% carmine red and 5% gelatin in normal saline solution (40). Mice were killed, then freezed in a refrigerator at −20 for 2 h to solidify. Tumors were segregated, weighed and homogenized with 3 M NaOH solution (10 ml/g tumor). The homogenate supernatant was prepared by being centrifuged for 20 min at 14000 rpm, and the absorbance at 490 nm was assayed using a PowerWaveX Microplate Scanning Spectrophotometer (Bio-tek Instruments, Inc). The carmine red content was calculated based on the standard curve. The vascular index (VI) expressed as milligram of carmine red per gram of tumor tissue. The inhibition ratio (IR) of tumor growth was calculated using the formula: IR (%)=[(Wc−Wt)/Wc]×100%, where Wc is the average tumor weight of the control group, and Wt is that of the drug treatment group. Data were expressed as mean±SD and statistical analysis was performed by SPSS Statistics 17.0 using a one-way analysis of variance (ANOVA) followed by unpaired t-test. A value of P<0.05 was considered statistically significant.

S180 murine sarcoma = experiment: Growth, invasion and metastasis of S180 sarcoma in tumor-bearing mice; assay type: in vivo, mouse
Description: 1) Animals: Be the same with that of EXAMPLE 4.
2) Cells: The S180 murine sarcoma cells were obtained from Henan Academy of Medical and Pharmaceutical Sciences (Zhengzhou, China).
4) Method: Mice were randomly divided into 10 groups (n=12). The S180 cells after in vivo passage for 7 d were diluted with physiological saline to adjust to a concentration of 1×10^7/mL. The inoculation of tumor cells was conducted in two batches, those of tumor control group I and groups treated with compounds 1 or 3 were in batch 1, those of tumor control group II, Cyc group and the compound 2 groups were in batch 2. The mice were injected with S180 cells (0.2 ml/mouse) into the armpit of right forelimb subcutaneously, and 24 h later each group of mice was administrated intragastrically (ig; 0.2 ml/10 g) once a day continuously for 9 d with vehicle (tumor control group), Cyc (standard control), or compounds at the tested doses. On day 10, kill the mice, observe and record the degree of invasion and metastasis of tumor tissues, then the tumor tissues were segregated and weighed. The inhibition ratio (IR) of tumor growth was calculated by the following formula: IR (%)=[(Wc−Wt)/Wc]×100%, where Wc is the average tumor weight of the control group, and Wt is that of the treatment group. Data were expressed as mean±SD and statistical analysis was performed by SPSS Statistics 17.0 using a one-way analysis of variance (ANOVA) followed by unpaired t-test. A value of P<0.05 was considered statistically significant.

[6] = tested on: B16-F10 mouse melanoma cells; assay type: in vivo; settings: B16-F10, C57BL/6 mice, 30.00 mg/kg ig 24 d
Description: 1) Animals: A total of 20 C57BL/6 male mice of clean grade [Number of Animal License: SCXK (Xiang) 2009-0004], weighing 18-22 g, were purchased from Hunan Slca Jingda Experimental Animal Center Company, Ltd., China.
2) Cells: B16-F10 mouse melanoma cells were purchased from Nanjing KeyGen Biotech. Co. Ltd., China.
(§5) 4) Method: B16-F10 cells in logarithmic growth phase were trypsinized, then resuspended in RPMI1640 medium containing 10% fetal bovine serum and centrifuged at 1000 rpm for 5 min. The supernatant was removed and sterile PBS was added to prepare single-cell suspension (10^7/mL). The murine melanoma lung metastasis model was established in mice via caudal vein injection of B16-F10 cells (0.2 ml/mouse). Mice were randomly divided into 4 groups (n=5) according to body weight, and 24 h later they were administrated intragastrically (ig; 0.2 ml/10 g) once a day continuously for 24 d with vehicle (tumor control group), Cyc (30 mg/kg), compound 3 at 0.85 mmol/kg and 1.10 mmol/kg. Mice were weighed and blood was collected by removing the eyeball at 24 h after the last administration. Sacrificed the mice, removed the lung and counted the number of melanoma nodules in lungs of mice under an anatomical lens. Serum obtained after centrifugation at 3000 rpm for 20 min (3K30 refrigerated centrifuge, Sigma, USA) was conserved at −20° C. Levels of TNF-α and IL-1β in serum were measured by ELISA method, which were performed in accordance with the instructions of the kits.
Data were expressed as mean±SD and statistical analysis was performed by SPSS Statistics 17.0 using a one-way analysis of variance (ANOVA) followed by unpaired t-test. A value of P<0.05 was considered statistically significant. The inhibition ratio (IR %) of lung metastasis was calculated as follows: IR %=(Nc−Nt)/Nc×100%, where Nc is the average number of nodules in lung tissues of vehicle, and Nt is that of mice treated with drugs.

TNF-α = assay type: in vivo, mouse; settings: mouse, in vivo, 30 mg/kg
IL-1β = assay type: in vivo, mouse; settings: mouse, in vivo, 30 mg/kg
[7] = assay type: in vivo, mouse; settings: C57BL/6 mice, before vs 24 d after administration, Cyc 30 mg/kg ig
Description: as §5

[8] = read-out: Inhibition against tumor cell colony formation IC50

C=C1CCC2C(C)(CO)C(O)CCC2(C)C1C=CC1=CC(=Cc2ccccc2)OC1=O (centres unmarked) [Compound 4]
Inhibition of colony formation compared with andrographolide [1]: remarkably stronger than that of andrographolide | IC50 [1, 8]: 4.51 µM | IC50 [2]: 4.84 µM | Inhibition of colony formation compared with andrographolide [3]: remarkably stronger than that of andrographolide | IC50 [3, 8]: 5.07 µM | Inhibitory effect on two-dimensional migration [4]: much stronger than that of other tumor cells | Inhibitory effect on two-dimensional migration [5]: much stronger than that of other tumor cells

O=P1(N(CCCl)CCCl)NCCCO1 (centres unmarked) [Cyc, Cyclophosphamide, reference compound]
IR (%) of tumor growth (Murine hepatoma H22): 29.34* % | Carmine contents (Murine hepatoma H22; mean ± s): 4.24 ± 2.29 | VI (vascular index, mg carmine red per g tumor tissue) (Murine hepatoma H22; mean ± s): 4.87 ± 1.13 mg/g | IR (%) of S180 sarcoma growth (S180 murine sarcoma; 30.00 mg/kg ig once a day 9 d): 53.61% and 53.61 ± 12.43 % | Average invasion and metastasis grade (S180 murine sarcoma; S180, grades 0-4, 30.00 mg/kg): 3.67 | Mouse Number Grade 0 (S180 murine sarcoma; S180 invasion, Grade 0: no invasion, 30.00 mg/kg): 0 | Mouse Number Grade 1 (S180 murine sarcoma; S180 invasion, Grade 1: invasion to right forelimb, 30.00 mg/kg): 0 | Mouse Number Grade 2 (S180 murine sarcoma; S180 invasion, Grade 2: right forelimb and the left side of body, 30.00 mg/kg): 0 | Mouse Number Grade 3 (S180 murine sarcoma; S180 invasion, Grade 3: also the ribs and muscles in chest, 30.00 mg/kg): 4 | Mouse Number Grade 4 (S180 murine sarcoma; S180 invasion, Grade 4: invasion into chest or abdominal cavity, 30.00 mg/kg): 8 | IR (%) of lung metastasis ([6]; 30 mg/kg): 47.92% | Lung index ([6]; mean ± s, n = 5): 6.66 ± 0.37 mg/g | Nodule number (melanoma nodules in lungs) ([6]; mean ± s, n = 5): 43.76 ± 11.70 | TNF-α in serum (TNF-α): 8.45 ± 9.54 | IL-1β in serum (IL-1β): 41.58 ± 4.39 pg/mL | Average increase in body weight [7]: 0.7 g
